Like-named read-outs stand apart in the source and are kept apart here.
Molecular target: T1, BCL-XL (Homo sapiens, UniProt Q07817)
T1 construct: endogenous in cells; host or cells: MOLT-4
Test: BCL-XL degradation assay, western blot in MOLT-4 cells, 16 h
Format: cell-based
Details: for DC50: read-out: Bcl-xL WB in MOLT-4 degradation 16 h: Mean external-Abs DC50
Description: Compounds treatment: compounds were reconstituted in DMSO to make a stock concentration of 10 mM. MOLT-4 cells were maintained in RPMI-1640+10% FBS+1% Penicillin-Streptomycin. Cells were seeded into 6-well plates in 2 mL at the seeding density of 2e6 cells/mL. Compounds were added to the cells to a final concentration ranging 0.02-10 μM. After 16 hr incubation at 37° C., in a CO2 incubator, cells were collected in an Eppendorf tube and centrifuged at 200×g for 5 minutes, the supernatant removed and pellets washed with ice-cold PBS, centrifuged and supernatant removed again. Then. 50 μl of pre-chilled RIPA lysis buffer (Boston BioProducts. BP-115D) with protease and phosphatase inhibitors (Roche Applied Science. #04906837001 and #04693116001) was added into cell pellet to lyze the cells for 20 minutes under 4° C. Cell lysates were spin at 13000 rpm for 10 minutes. Supernatants were collected and protein concentration was measured by BCA assay kit (Solarbio. PC0020-500) following the manufacturer's protocol. Samples' final protein concentration was adjusted to 3.75 μg/uL with the RIPA lysis buffer based on BCA assay results and 4× loading buffer (Invitrogen. NP0007) was added into the samples and samples were heated to 85° C., for 10 min and then let cool at RT. Samples were centrifuged at 13000 rpm for 10 min and then loaded into a 26-well NuPAGER. Novex 4-12% Bis-Tris Midi Gel (Invitrogen. WG1403BOX) and run in NuPAGER MOPS SDS Running Buffer (Invitrogen. NP0001) for 180 minutes at 70 V into a XCell4 SureLock™ Midi-Cell Runner (Invitrogen. WR0100). Gel were transferred using the Invitrogen iBlot gel transfer device (Invitrogen. IB21001) and the nitrocellulose transfer stacks (Invitrogen, IB23001) with Program PO for 9 minutes. The membrane was then blocked with 5% bovin serum albumin for 1 hr at RT, then incubated with primary antibodies diluted in blocking buffer (LI-COR. 927-60001) and shake at 4° C., overnight. The primary antibodies were anti-BCL-xL antibody (CST. 2762:1:1000), anti-beta-actin (CST. 3700; 1:5000) and anti-GAPDH (CST. 97166:1:5000). Membranes were then washed three times with PBST for 15 minutes at RT. Secondary antibodies IR-Dye 680 CW Goat anti Mouse IgG (LI-COR. 926-68070) and IR-Dye 800 CW Goat anti Rabbit IgG (LI-COR. 926-32211) were diluted at a ratio of 1:10000 into PBST and membranes incubated for 1 hour at RT. Membranes were then washed three times with PBST for 15 minutes at RT. The western blot images were obtained using Odyssey Imaging System and quantified using Image Studio Lite Ver 5.2 software.
The letter codes for BCL-XL DC50 include: A (<0.01 μM); B (0.01-0.1 μM); C (>[…]); D (>0.5-1.0 μM); and E (>1.0 μM). The letter codes for Dmax % include A (>75%); B (50 to 75%); C (<50%).

[1] = western blot, MOLT-4 cells, 16 h, read-out: Bcl-xL WB in MOLT-4 degradation 16 h: Average Dmax %
[2] = western blot, MOLT-4 cells, 16 h

T1 sequence (Q07817 whole entry): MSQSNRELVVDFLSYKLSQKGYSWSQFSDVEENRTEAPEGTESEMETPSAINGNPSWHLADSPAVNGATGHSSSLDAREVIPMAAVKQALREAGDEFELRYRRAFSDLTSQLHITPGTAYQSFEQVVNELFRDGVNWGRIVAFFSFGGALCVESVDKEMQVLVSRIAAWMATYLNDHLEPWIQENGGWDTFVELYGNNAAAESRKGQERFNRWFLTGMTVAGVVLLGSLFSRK

| Compound | Dmax [1] [%] | DC50 [2] [nM] | Dmax (MOLT-4, read-out: Bcl-xL WB in MOLT-4 degradation 16 h: Average Dmax %) [%] |
| --- | --- | --- | --- |
| CC1(C)CCC(c2ccc(Cl)cc2)=C(CN2CCN(c3ccc(C(=O)NS(=O)(=O)c4ccc(N[C@H](CCN5CCN(C(=O)COc6ccccc6CNC(=O)[C@@H]6C[C@@H](O)CN6C(=O)[C@@H](NC(=O)C6(F)CC6)C(C)(C)C)CC5)CSc5ccccc5)c(S(=O)(=O)C(F)(F)F)c4)cc3)CC2)C1 [I-97] | < 50 | > 1000 |  |
| Cc1ncsc1-c1ccc(CNC(=O)[C@@H]2C[C@@H](O)CN2C(=O)[C@@H](NC(=O)C2(F)CC2)C(C)(C)C)c(O[C@H]2CC[C@@H](N3CCN(CC[C@H](CSc4ccccc4)Nc4ccc(S(=O)(=O)NC(=O)c5ccc(N6CCN(CC7=C(c8ccc(Cl)cc8)CCC(C)(C)C7)CC6)cc5)cc4S(=O)(=O)C(F)(F)F)CC3)CC2)c1 (single isomer, unassigned) [I-115] | < 50 | > 1000 |  |
| Cc1ncsc1-c1ccc(CNC(=O)[C@@H]2C[C@@H](O)CN2C(=O)[C@@H](NC(=O)C2(F)CC2)C(C)(C)C)c(OCCCCCC(=O)N(C)CCCc2cccc(F)c2OCCCc2sc(N3CCc4cccc(C(=O)Nc5nc6ccccc6s5)c4C3)nc2C(=O)O)c1 [I-13] | > 75 | 100 to 500 |  |
| Cc1ncsc1-c1ccc(CNC(=O)[C@@H]2C[C@@H](O)CN2C(=O)[C@@H](NC(=O)C2(F)CC2)C(C)(C)C)c(OCCCN2CCN(CC[C@H](CSc3ccccc3)Nc3ccc(S(=O)(=O)NC(=O)c4ccc(N5CCN(CC6=C(c7ccc(Cl)cc7)CCC(C)(C)C6)CC5)cc4)cc3S(=O)(=O)C(F)(F)F)CC2)c1 [I-132, (2S,4R)—N-(2-(3-(4-((R)-3-((4-(N-(4-(4-((4′-chloro-4,4-dimethyl-3,4,5,6-tetrahydro-[1,1′-biphenyl]-2-yl)methyl)piperazin-1-yl)benzoyl)sulfamoyl)-2-((trifluoromethyl)sulfonyl)phenyl)amino)-4-(phenylthio)butyl)piperazin-1-yl)propoxy)-4 (4-methylthiazol-5-yl)benzyl)-1-((S)-2-(1-fluorocyclopropanecarboxamido)-3,3-dimethylbutanoyl)-4-hydroxypyrrolidine-2-carboxamide] |  | 10 to 100 | > 75 |
| Cc1cc(N(CCN(C)C(=O)CCCCCOc2cc(-c3scnc3C)ccc2CNC(=O)[C@@H]2C[C@@H](O)CN2C(=O)[C@@H](NC(=O)C2(F)CC2)C(C)(C)C)c2ccc(-c3cnn(CC4CCCCC4)c3C)c(C(=O)O)n2)nnc1Nc1nc2ccccc2s1 [I-103] | < 50 | > 1000 |  |
| Cc1ncsc1-c1ccc([C@H](C)NC(=O)[C@@H]2C[C@@H](O)CN2C(=O)[C@@H](NC(=O)[C@H]2CC[C@H](CC(=O)N3CCN(CC[C@H](CSc4ccccc4)Nc4ccc(S(=O)(=O)NC(=O)c5ccc(N6CCN(CC7=C(c8ccc(Cl)cc8)CCC(C)(C)C7)CC6)cc5)cc4S(=O)(=O)C(F)(F)F)CC3)CC2)C(C)(C)C)cc1 [I-391] | > 75 | 10 to 100 |  |
| Cc1ncsc1-c1ccc([C@H](C)NC(=O)[C@@H]2C[C@@H](O)CN2C(=O)[C@@H](NC(=O)CCCC(=O)N2CCN(CC[C@H](CSc3ccccc3)Nc3ccc(S(=O)(=O)NC(=O)c4ccc(N5CCN(CC6=C(c7ccc(Cl)cc7)CCC(C)(C)C6)CC5)cc4)cc3S(=O)(=O)C(F)(F)F)CC2)C(C)(C)C)cc1 [I-86] | 50 to 75 | > 1000 |  |
| Cc1ncsc1-c1ccc(CNC(=O)[C@@H]2C[C@@H](O)CN2C(=O)C(c2cc(OCCCCCCCCC(=O)N(C)CC#Cc3ccc(OCCCc4sc(N5CCc6cccc(C(=O)Nc7nc8ccccc8s7)c6C5)nc4C(=O)O)c(F)c3)no2)C(C)C)cc1 (some centres unmarked) [I-88] | > 75 | 10 to 100 |  |
| Cc1ncsc1-c1ccc(CNC(=O)[C@@H]2C[C@@H](O)CN2C(=O)[C@@H](NC(=O)C2(F)CC2)C(C)(C)C)c(O[C@H]2CC[C@@H](C(=O)N3CCN(CC[C@H](CSc4ccccc4)Nc4ccc(S(=O)(=O)NC(=O)c5ccc(N6CCN(CC7=C(c8ccc(Cl)cc8)CCC(C)(C)C7)CC6)cc5)cc4S(=O)(=O)C(F)(F)F)CC3)CC2)c1 [I-90] | < 50 | > 1000 |  |
| CC1(C)CCC(c2ccc(Cl)cc2)=C(CN2CCN(c3ccc(C(=O)NS(=O)(=O)c4ccc(N[C@H](CCN5CCN(C(=O)COc6cc(F)ccc6CNC(=O)[C@@H]6C[C@@H](O)CN6C(=O)[C@@H](NC(=O)C6(F)CC6)C(C)(C)C)CC5)CSc5ccccc5)c(S(=O)(=O)C(F)(F)F)c4)cc3)CC2)C1 [I-98] | < 50 | > 1000 |  |
| Cc1ncsc1-c1ccc(CNC(=O)[C@@H]2C[C@@H](O)CN2C(=O)[C@@H](NC(=O)C2(F)CC2)C(C)(C)C)c(OCCCCCCCCC(=O)N(C)CC#Cc2ccc(OCCCc3sc(N4CCc5cccc(C(=O)Nc6nc7ccccc7s6)c5C4)nc3C(=O)O)c(F)c2)c1 [I-386] | > 75 | 10 to 100 |  |
| Cc1ncsc1-c1ccc([C@H](C)NC(=O)[C@@H]2C[C@@H](O)CN2C(=O)[C@@H](NC(=O)CCCCCCCS(=O)(=O)NC(=O)c2ccc(N3CCN(CC4=C(c5ccc(Cl)cc5)CCC(C)(C)C4)CC3)cc2)C(C)(C)C)cc1 [I-107] | 50 to 75 | > 1000 |  |

The next lines start with results.

| Dmax [1] [%] | DC50 [2] [nM] | Compound | Dmax (MOLT-4, read-out: Bcl-xL WB in MOLT-4 degradation 16 h: Average Dmax %) [%] |
| --- | --- | --- | --- |
| 50 to 75 | 500 to 1000 | Cc1ncsc1-c1ccc(CNC(=O)[C@@H]2C[C@@H](O)CN2C(=O)[C@@H](NC(=O)C2(F)CC2)C(C)(C)C)c(OCCCCCC(=O)N(C)CC#Cc2ccc(OCCCc3sc(N4CCc5cccc(C(=O)Nc6nc7ccccc7s6)c5C4)nc3C(=O)O)c(F)c2)c1 [I-7] |  |
| > 75 | 10 to 100 | Cc1ncsc1-c1ccc(CNC(=O)[C@@H]2C[C@@H](O)CN2C(=O)[C@@H](NC(=O)CCOCCOCCOCC#Cc2ccc(OCCCc3sc(N4CCc5cccc(C(=O)Nc6nc7ccccc7s6)c5C4)nc3C(=O)O)cc2)C(C)(C)C)cc1 [I-385] |  |
| < 50 | > 1000 | Cc1ncsc1-c1ccc([C@H](C)NC(=O)[C@@H]2C[C@@H](O)CN2C(=O)[C@@H](NC(=O)CCc2ccc(N3CCc4cccc(C(=O)Nc5nc6ccccc6s5)c4C3)nc2C(=O)O)C(C)(C)C)cc1 [I-40] |  |
| > 75 | < 10 | Cc1ncsc1-c1ccc([C@H](C)NC(=O)[C@@H]2C[C@@H](O)CN2C(=O)[C@@H](NC(=O)CCCCCS(=O)(=O)NC(=O)c2nc(N3CCc4cccc(C(=O)Nc5nc6ccccc6s5)c4C3)sc2CCCOc2ccc(C#CCN(C)C)cc2F)C(C)(C)C)cc1 [I-26] |  |
| 50 to 75 | 100 to 500 | Cc1ncsc1-c1ccc([C@H](C)NC(=O)[C@@H]2C[C@@H](O)CN2C(=O)[C@@H](NC(=O)CCCCCC(=O)N2CCN(CCCC3(Cn4ncc(-c5ccc(N6CCc7cccc(C(=O)Nc8nc9ccccc9s8)c7C6)nc5C(=O)O)c4C)CCCCC3)CC2)C(C)(C)C)cc1 [I-131] |  |
| > 75 | 100 to 500 | Cc1ncsc1-c1ccc([C@H](C)NC(=O)[C@@H]2C[C@@H](O)CN2C(=O)[C@@H](NC(=O)CCCNC(=O)CCC2(Cn3ncc(-c4ccc(N5CCc6cccc(C(=O)Nc7nc8ccccc8s7)c6C5)nc4C(=O)O)c3C)CCCCC2)C(C)(C)C)cc1 [I-129] |  |
| < 50 | > 1000 | Cc1ncsc1-c1ccc([C@H](C)NC(=O)[C@@H]2C[C@@H](O)CN2C(=O)[C@@H](NC(=O)CCCCCS(=O)(=O)NC(=O)c2cccc(N3CCc4cccc(C(=O)Nc5nc6ccccc6s5)c4C3)n2)C(C)(C)C)cc1 [I-119] |  |
| < 50 | > 1000 | Cc1cc(N(CCCC(=O)N[C@H](C(=O)N2C[C@H](O)C[C@H]2C(=O)N[C@@H](C)c2ccc(-c3scnc3C)cc2)C(C)(C)C)c2ccc(-c3cnn(CC4CCCCC4)c3C)c(C(=O)O)n2)nnc1Nc1nc2ccccc2s1 [I-113] |  |
| 50 to 75 | > 1000 | Cc1ncsc1-c1ccc([C@H](C)NC(=O)[C@@H]2C[C@@H](O)CN2C(=O)[C@@H](NC(=O)CCCCCC(=O)N2CCN(CC#Cc3ccc(OCCCc4sc(N5CCc6cccc(C(=O)Nc7nc8ccccc8s7)c6C5)nc4C(=O)O)cc3)CC2)C(C)(C)C)cc1 [I-93] |  |
| > 75 | 100 to 500 | Cc1ncsc1-c1ccc([C@H](C)NC(=O)[C@@H]2C[C@@H](O)CN2C(=O)[C@@H](NC(=O)CCCCCC(=O)N(C)CCCc2cccc(F)c2OCCCc2sc(N3CCc4cccc(C(=O)Nc5nc6ccccc6s5)c4C3)nc2C(=O)O)C(C)(C)C)cc1 [I-10] |  |
